Results on two compounds are retold here after patent US7179792B2, “Combination product of a 1,4-benzothiepine 1,1-dioxide compound with at least one other active ingredient and the use of the product” (Sanofi-Aventis Deulschland GmbH, priority 2001, dated 2007).

This assay has as its system Male Syrian hamsters (Mesocricetus auratus). The assay can be described thus: Plasma lipid levels in hamsters fed 0.1% cholesterol, oral treatment for 10 days. Type of assay: in vivo. The following applies: feed + 0.1% CH; for Plasma Cholesterol % / Plasma Triglycerides %: Cholesterol ctr. = 100; for Plasma Cholesterol / Plasma LDL / Plasma Triglycerides: plasma day 10. As to the method: The synergistic activity of the combination product of a compound of formula I with the other active ingredient was tested in an animal experiment. For this purpose, compound V1 from the compound of formula I was tested: Hamsters were used for the biological testing of the combination product of the invention. Male Syrian hamsters (Mesocricetus auratus) from 8 to 10 weeks of age were used for the experiment. The animals received a standard feed (Teklad 8604M) supplemented with 0.1% cholesterol. An additional normal control group received only standard feed. The test substances were administered orally by gavage once a day on 10 consecutive days, and the control group was treated with the vehicle. Feces were collected on days 5 and 6 of the experiment for bile acid analysis. Retroorbital blood was taken from the animals on day 10 of the experiment, and the lipid levels in the plasma were determined. Radioactive tracers were administered orally to the animals on day 9 of the experiment to determine the cholesterol absorption in analocy to the method described by Zilversmith et al. On day 11 of the experiment, the animals were sacrificed, and the animals' livers were removed for cholesterol analysis and preparation of microsomes. The 7α-hydroxylase activity was determined in the liver microsomes ex vivo by a modified method of Hylemon et al. [table] • K00004513 employed as stock solution (1 mg/ml in EtOH) • Substances are dissolved in 2% EtOH in a final concentration of 5%. • The solutions are then suspended with 0.4% potato starch. • Administration takes place 1× in the morning with 10 ml/kg Feed: Teklad 8604M CH: 032201 M Experimental animals: Male Syrian hamsters (Mesocricetus auratus) supplied by Harlan 100–120 g at the start of adaptation Measured Parameters: • Feed consumption • Animal weight (weekly) • Liver weight • Safety parameters (CH; TG; ALAT/ASAT; AP; HDULDL) • Liver cholesterol (HPLC)=1×500 mg in EtOH/KOH • CYP7 activity (liver microsomes as group pool of 0.5 g each—preparation on day of experiment) • Feces collected on day 5–7 for bile acid determination

In the case of `O=C1[C@H](CC[C@H](O)c2ccc(F)cc2)[C@@H](c2ccc(O)cc2)N1c1ccc(F)cc1` [Ezetimibe, ezetimibe, reference compound], for the setting “0.1 mg/kg/d oral”, the “Plasma Cholesterol %” value came out at 98%, the “Plasma Triglycerides %” value is given as 100%, the “Plasma Cholesterol” value stood at 3.44 mmol/L and the “Plasma LDL” value is given as 1.04 mmol/L. The “Plasma Triglycerides” value (0.1 mg/kg/d oral) was determined as 1.63 mmol/L.
Take `CCCC[C@]1(CC)CS(=O)(=O)c2ccc(N(C)C)cc2[C@@H](c2cccc(NC(=O)CCCCNC[C@H](O)[C@@H](O)[C@H](O)[C@H](O)CO)c2)[C@H]1O` [V1]: where the note is “0.1 mg/kg/d oral”, the “Plasma Cholesterol %” value came to 120%, the “Plasma Triglycerides %” value was determined as 115%, the “Plasma Cholesterol” value was 4.20 mmol/L and the “Plasma LDL” value was determined as 1.06 mmol/L. In addition, for the setting “0.1 mg/kg/d oral”, the “Plasma Triglycerides” value is on record as 1.87 mmol/L. For the same compound, where the note is “0.3 mg/kg/d oral”, the “Plasma Cholesterol %” value is 114%, the “Plasma Triglycerides %” value is 108%, the “Plasma Cholesterol” value was determined as 4.01 mmol/L and the “Plasma LDL” value is recorded as 1.18 mmol/L. Further, the “Plasma Triglycerides” value (0.3 mg/kg/d oral) is on record as 1.75 mmol/L. Moreover, under “1 mg/kg/d oral”, the “Plasma Cholesterol %” value worked out at 92%, the “Plasma Triglycerides %” value is reported as 124%, the “Plasma Cholesterol” value came out at 3.23 mmol/L and the “Plasma LDL” value was 0.92 mmol/L. For the same compound, the “Plasma Triglycerides” value (1 mg/kg/d oral) worked out at 2.02 mmol/L.
